This is an account of results in US6949660B2, “Chiral (1pyrrolino) fullerene derivatives” (Seth Nanotechnology, Incorporated, priority 1995, dated 2005).

For test [1], the system named is superoxide radicals (O2−). The experiment in a line: Superoxide radical scavenging: xanthine/xanthine oxidase system, cytochrome C reduction, absorption at 550 nm. Type of test: biochemical. The note with it: xanthine 50 μM, cytochrome C 10 μM, phosphate buffer pH 7.8. The method, then: Detection of high free radical scavenging potency of hydrophilic fullerene derivatives. […] Therefore, the detected optical absorption intensity of the reduced cytochrome (Fe^+2) C can be correlated to the quantity of superoxide radicals reacted with cytochrome (Fe^+3) C. Scavenging of superoxide radicals by hydrophilic fullerene derivatives in the bio-medium inhibits the formation of reduced cytochrome (Fe+2) C and thus reduce the optical absorption at 550 nm.
In one experiment, xanthine (50 μM) was added to a physiological medium (3 ml) containing cytochrome C (10 μM), ethylenediaminetetraacetic acid (EDTA) (10 mM) and a phosphate buffer (50 mM) at pH 7.8. The mixture was then added xanthine oxidase in quantity enough to induce 0.025 unit of optical absorption at 550 nm per 5 min (Mc Cord, et al. J. Biol. Chem. 1969, 244, 6049.). Subsequently, 1,3-dimethyl-N-succinamitofulleropyrrolidine-1,3-dicarboxylic acid, C60[C(CH3)CO2H]2NCO—CH2CH2CO2H, prepared in Example 12, in a concentration of 0, 5.0, 10.0, 25.0, 50, and 100 μM was added in separated runs while the absorption intensity of the reduced cytochrome C was recorded. A rapid decrease of reduced cytochrome C to roughly 50% and 20% of the control value was obtained with the dose of 1,3-dimethyl-N-succinamitofulleropyrrolidine-1,3-dicarboxylic acid as 25 and 100 μM, respectively.

Test [2] concerns Fibrosarcoma tumor cells (CCRC 60037). Put plainly: Growth inhibition of fibrosarcoma tumor cells upon photo-irradiation, MTT assay. It is filed as cell-based. As to conditions: compound 2.5 μM for 24 h; fluorescence light (27 W) photo-irradiation more than 20 min; then 48 h at 37° C. The method, then: The growth inhibitory effect of 1,3-dimethyl-N-succinamitofulleropyrrolidine-1,3-dicarboxylic acid, C60[C(CH3)CO2H]2NCO—CH2CH2CO2H, which was prepared as described in Example 12, on fibrosarcoma tumor cells upon photo-irradiation was studied in vitro. Fibrosarcoma tumor cells (0.5 ml, 4×10^4/ml, CCRC 60037) were grown in the MEM medium in a 24-well plate for a period of 24 h. It was treated by 1,3-dimethyl-N-succinamitofulleropyrrolidine-1,3-dicarboxylic acid in a concentration of 0.0, 2.5, 5.0, 7.5, and 10.0 μM for a period of 24 hours. The MEM medium was removed and replaced by the fresh medium (1.0 ml). The cell-containing plates were exposed to a fluorescence light source (27 W) in a distance of 5-6 cm for a period of 10, 20, 40, and 60 min. The plates were then kept in incubator at 37° C. a period of 48 h. Measurement of cell viability in each plate was performed by the MTT assay using optical absorption at 540 nm.
(In general: Tetrazolium dyes change colour on reduction, which living cells bring about.)

“1,3-dimethyl-N-succinamitofulleropyrrolidine-1,3-dicarboxylic acid”: the “reduced cytochrome C, % of the control value” is “roughly 50%” in test [1] (compound 25 μM) and around 20% in test [1] (compound 100 μM). For the same substance, the “tumor cell count (cell viability, MTT, absorption at 540 nm)” value in test [2] is “rapid decrease in the tumor cell count”.
